Key:
androgen receptor (AR) = biological target: T1, androgen receptor (AR) (Rattus norvegicus, UniProt P15207); test: AR binding assay, competition with [3H]-mibolerone binding in rat ventral prostate cytosol; conditions: 1 nM [3H]-mibolerone, overnight at 0° C.
T1 construct: Ventral prostates were obtained form rats castrated 24 h prior to sacrifice; from tissue; host or cells: rat ventral prostate cytosol (castrated rats, charcoal-treated)
T1 sequence (P15207 1-902): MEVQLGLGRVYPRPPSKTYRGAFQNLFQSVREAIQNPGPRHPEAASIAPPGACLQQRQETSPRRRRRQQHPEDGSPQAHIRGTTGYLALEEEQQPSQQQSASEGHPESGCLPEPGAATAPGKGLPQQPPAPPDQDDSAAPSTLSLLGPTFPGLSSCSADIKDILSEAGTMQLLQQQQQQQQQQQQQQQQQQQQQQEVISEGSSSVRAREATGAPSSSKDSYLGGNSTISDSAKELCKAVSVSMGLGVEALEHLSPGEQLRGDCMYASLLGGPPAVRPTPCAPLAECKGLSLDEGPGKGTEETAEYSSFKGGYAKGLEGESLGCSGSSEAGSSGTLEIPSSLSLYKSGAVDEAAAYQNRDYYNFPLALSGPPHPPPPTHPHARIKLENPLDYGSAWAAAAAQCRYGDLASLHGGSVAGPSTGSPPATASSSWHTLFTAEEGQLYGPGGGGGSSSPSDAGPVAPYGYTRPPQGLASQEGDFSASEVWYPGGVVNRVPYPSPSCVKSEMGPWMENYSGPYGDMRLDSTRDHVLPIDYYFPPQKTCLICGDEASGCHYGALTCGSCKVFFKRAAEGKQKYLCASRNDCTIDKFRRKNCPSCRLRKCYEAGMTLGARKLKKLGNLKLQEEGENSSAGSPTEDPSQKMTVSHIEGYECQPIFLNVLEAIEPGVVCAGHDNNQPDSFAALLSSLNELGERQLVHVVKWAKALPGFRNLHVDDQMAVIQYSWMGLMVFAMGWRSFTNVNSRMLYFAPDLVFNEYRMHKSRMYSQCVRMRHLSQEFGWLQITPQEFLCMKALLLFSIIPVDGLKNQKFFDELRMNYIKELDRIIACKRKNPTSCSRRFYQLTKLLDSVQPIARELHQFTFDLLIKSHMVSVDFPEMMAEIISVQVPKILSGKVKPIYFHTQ
Procedure: Ventral prostates were obtained form rats castrated 24 h prior to sacrifice. Fresh prostate was minced and washed with Buffer A (Schilling and Liao, Prostate, 5:581-588, 1984). The minces were then homogenized in 3× volume of Buffer A containing protease inhibitors (Complete, Mini, EDTA-free Roche). The homogenate was centrifuged at 30000 g for 30 min. The resultant supernatants were treated with 1×volume of dextran-coated charcoal solution (12.5 g activated charcoal, 12.5 g dextran per liter of buffer A) to remove endogenous steroids. The samples were incubated for 5 min and centrifuged at 16000 g for 10 min. Aliquots of the charcoal-treated cytosol were taken for androgen receptor assays. All procedures were carried out at 0-4° C.
Cytosol androgen receptor concentration was determined as described (Isomaa et al., Endocrinology, 111: 833-843, 1982) with minor modifications. Cytosol preparations were prepared as described above, and bound and free steroids were separated by treatment with an equal volume of dextran-charcoal suspension for 5 min at 4° C. followed by centrifugation at 16000 g for 10 min. Bound radioactivity was determined by counting supernatant fractions in 1 ml of OptiPhase HiSafe3 or OptiPhase Supermix (PerkinElmer).
Cytosol preparations were labelled with 1 nM [^3H]-mibolerone overnight at 0° C. (total). To determine AR binding activity of the compounds of the present invention (test compounds), the ability of test compounds to compete with [^3H]7α,17α-dimethyl-17β-hydroxy-4-estren-3-one ([^3H]-mibolerone) binding was studied. 1 nM [^3H]-mibolerone and test compounds in two concentrations (0.2 and 2 uM) were incubated overnight at 0° C. To determine non-specific binding, parallel incubations were carried out using 1 nM concentration [^3H]-mibolerone with 500-fold molar excess of unlabelled testosterone. Two to four replicates were used for each sample. After incubation, bound and free steroids were separated as described above and bound radioactivity was determined. The ability of the test compounds to bind AR is reported as reduction in bound radioactivity obtained with 1 nM [^3H]-mibolerone. The results (% inhibition) were calculated as: % inhibition=100−(100×(averagetest compound/averagetotal)).

AR = biological target: T2, AR (Rattus norvegicus, UniProt P15207); test: AR agonism and antagonism in immature male rats, 3-day assay, relative organ weights
T2 sequence (P15207 1-902): T1 sequence (P15207 1-902)
Procedure: The title compound of Example 3, abbreviated here as compound A, was further studied in in vivo experiment. The agonism and antagonism of the compound with subcutaneous dosing was tested in immature male Spraque Dawley rat 3-day assay by analyzing the relative weights of ventral prostate, seminal vesicle, and levator ani-muscle. Testosterone propionate was used as a reference compound.
Testosterone propionate (abbreviated here TP) and compound A were first dissolved into DMSO and then into the vehicle sesame oil. Sprague-Dawley untreated male rats (18-19 days old) weighing about 50 g were used in the experiment. Rats were weighed and randomly distributed into five groups, with 5 animals per group (Table 1). Compound A (doses 2 and 20 mg/kg) and testosterone propionate (dose 5 mg/kg) were given subcutaneously (s.c.) into the neck/back of the animals at a constant volume of 100 microl dosing solution/animal/day. The animals were dosed once daily for three days, and clinical signs were recorded during dosing. At the end of the study, animals were weighed and anaesthetised by CO2 asphyxiation. Ventral prostate, seminal vesicles, and levator ani-muscle were dissected out, chilled, and weighed. For statistical analysis, the weights of all organs were normalized to body weights, and analyzed for statistical significant difference by single-factor ANOVA.
In the Figure, “a” means agonism, p<0.01 compared to vehicle group, “b” means antagonism, p<0.05 compared to testosterone group, bars represent mean±SEM.

[1] = 20 mg/kg s.c. once daily for three days, immature male rat
[2] = 5 mg/kg s.c. once daily for three days, immature male rat

Structure (SMILES)	inhibition at 0.2 µM (androgen receptor (AR); test compound 0.2 μM) [%]	inhibition at 2 µM (androgen receptor (AR); test compound 2.0 μM) [%]	relative weight of levator ani-muscle (AR; [1])	relative weight of the prostate (AR; [1])	antagonistic activity in seminal vesicle (AR; TP 5 mg/kg + compound A 20 mg/kg s.c., p<0.05 compared to testosterone group)	androgenic and anabolic activity (AR; s.c. 2 and 20 mg/kg, immature male rat, FIG. 1)	effect on the body weights (AR; s.c. once daily for three days, immature male rat, data not shown)	tissue selectivity compared with testosterone propionate (AR; s.c., immature male rat)	relative weight of levator ani-muscle (AR; [2])	relative weight of seminal vesicle (AR; [2])	relative weight of ventral prostate (AR; [2])	effect on the body weights (AR; rat, in vivo, sc)
CC(=O)Nc1ccc(OC[C@](C)(O)C(=O)Nc2ccc([N+](=O)[O-])c(C)c2)cc1 [Example 3, (2S)-3-(4-Acetylaminophenoxy)-2-hydroxy-2-methyl-N-(3-methyl-4-nitrophenyl)propionamide]	103	115	clearly increased	only minimally	significant antagonistic activity	shows androgenic and anabolic activity	Neither testosterone propionate nor compound A had any effect	showed tissue selectivity	–	–	–	–
CCC(=O)O[C@H]1CC[C@H]2[C@@H]3CCC4=CC(=O)CC[C@]4(C)[C@H]3CC[C@]12C [testosterone propionate, Testosterone propionate, reference compound]	–	–	–	–	–	–	–	–	increased significantly	increased significantly	increased significantly	Neither testosterone propionate nor compound A had any effect

From patent US7390923B2, “Propionamide derivatives useful as androgen receptor modulators” (Orion Corporation, priority 2003, dated 2008)
